Test results reported in patent publication US9593149B2, “Amylin and calcitonin receptor agonist” (Novo Nordisk A/S, priority 2014, dated 2017).
Numbered stars: 1 amine (or outer) side, 2 acyl side, 3 side chain; on linkers, the order of the positions; unused ones are H or OH. Peptide text beside a SMILES is read from it. * marks the point of attachment. C18 diacid = O=C(O)CCCCCCCCCCCCCCCCC(=O)*; γGlu = O=C(O)[C@H](CCC(=O)[*:2])N[*:1]

Experiments:
[1] = Assay (IV) determination of solubility; assay type: physicochemical
Experimental: Assay (IV)—Determination of Solubility
The mimylin peptide was dissolved in water at ˜500 nmol/ml and mixed 1:1 with a series of buffers (100 mM glycylglycine pH 3.0, 100 mM glycylglycine pH 4.0, 100 mM glycylglycine pH 5.0, 100 mM bistrispropane pH 6.0, 100 mM bistrispropane pH 6.5, 100 mM bistrispropane pH 7.0, 100 mM bistrispropane pH 7.5, 100 mM bistrispropane pH 8.0).

[2] = Assay (IX) pK, T½ in mini-pig; assay type: in vivo, Göttingen mini-pigs; conditions: i.v.
Experimental: Assay (IX)—pK—Determination of T½ in Mini-Pig
Pharmacokinetic (PK) studies in Göttingen mini-pigs were conducted in order to determine the T½ of the mimylin compound according to the Examples as indicated after i.v. administration.
T½ values of the amylin analogues of the invention is determined by pharmacokinetic studies in female Göttingen mini-pigs from Ellegaard Göttingen Minipigs ApS and the principles of laboratory animal care are followed.
An acclimatisation period of approximately 6-10 days was allowed before the animals entered the study. At start of the acclimatisation period the mini-pigs were about 5 to 12 months old and in the weight range of 15-35 kg. The mini-pigs had two central venous catheters inserted which were used for blood sampling.
The studies were conducted in an animal room which was illuminated to give a cycle of approximately 12 hours light and 12 hours darkness. The animals were housed individually. The animals had free access to domestic quality drinking water during the study, and no food restrictions applied for PK studies. The animals were weighed on arrival and on the days of dosing.
In the present studies the test substances were administered intravenously in approximately 5 nmol/kg dose. The animals received a single intravenous injection in one central venous catheter and blood sampling was performed from the other catheter, where possible. Each test substance was given to typically three but in some cases two or four animals.
A full plasma concentration-time profile, employing 12-16 sampling points, was obtained from each animal. In example blood samples were collected according to the following schedule:
After Intravenous Administration:
Pre-dose (0), 0.5, 1, 2, 4, 6, 8, 12, 24, 48, 72, 96, 120, 168 and 240 hours after injection. In some cases also additional blood samples up to 288 hours post injection were taken.
At each sampling time, 0.5 to 2 ml of blood was drawn from each animal. The blood samples were taken via the central venous catheter.
The 0.8 mL blood samples were collected into EDTA test tubes (8 mM EDTA). Blood samples were kept on ice for max 20 min. before centrifugation. Plasma was separated using centrifugation (i.e. at 4° C., 10 min., 2000G) and was immediately transferred to Micronic tubes on dry ice. Approximately 200 μl plasma was transferred to each Micronic tube. The plasma was stored at −20° C. until assayed. The plasma samples were assayed for the content of compound using LCMS.
The plasma concentration-time profiles were analysed by a non-compartmental pharmacokinetic analysis (NCA) using Phoenix WinNonlin 6.3 (Pharsight Inc., Mountain View, Calif., USA). NCA was performed using the individual plasma concentration-time profiles from each animal. T½ is the terminal half-life=In2/λz and was determined from λz, the first order rate constant associated with the terminal (log-linear) portion of the curve, estimated by linear regression of time vs. log concentration.
MS-Method for Amylin and Mimylin Quantification
40 μl plasma is diluted with 120 μl 66.67% EtOH+1% HCOOH and mixed. Centrifuged for 20 min. at 13000 rpm, 4° C. The supernatant is analyzed by an LC-MS method on a Sciex API 3000 and quantitated with a standard made up in plasma

[3] = Assay (XV) subcutaneous PK in LYD-pigs, co-formulated or co-dosed with liraglutide; assay type: in vivo; conditions: for Cmax/D / T½ (hous): LYD-pigs s.c.
Experimental: The studies were performed in female LYD pigs of SPF origin delivered from Lars Jonson, Hillerødvej 70, Lynge.
Before the animals arrived, the animal rooms and pens were cleaned and disinfected with Virkon S. During the study, the animal rooms were cleaned and washed regularly.
The pigs were group housed during the acclimatisation period. The pigs were fitted with a central venous catheter while under anaesthesia and after the single housed after catheterization in pens ≧3.1 m^2 with straw as bedding. The temperature in the rooms was set at 20−23° C. and the relative humidity to 30-70%. The rooms were illuminated to give a cycle of 12 hours light and 12 hours darkness. Light was on from 07.00 to 19.00 h.
The formulations was prepared similarly and filled in cartridges in all cases.
The animals were dosed subcutaneously as follows.
The s.c. dosing was performed in 4 mm depth, in a site of injection which was secured on beforehand by ultrasound to avoid muscular tissue or heavy vascularization. Dosing was made using NovoPen®4 and needle Novofine 28 G and a needle stopper to ensure 4 mm depth of injection. The needle was kept in the subcutis for 10 seconds after the injection to secure deposition of compound. […] The co-formulation was administered as one injection. Study was performed as a cross over study with adequate wash out between dosings.
Blood was sampled at predefined time points for up till 15 days post dosing to adequately cover the full plasma concentration-time profile of the mimylin derivative. Blood samples were drawn from a central venous catheter to jugularis made through the catheter which was afterwards flushed with 10 ml 0.9% NaCl.
For each blood sampling time point approximately 0.8 mL of whole blood was collected in a 1.5 mL EDTA coated tube, and the tube was gently turned to allowing mixing of the sample with the anticoagulant. Blood samples (for example 0.8 mL) were collected in EDTA buffer (8 mM) and then centrifuged at 4° C. and 2000 G for 10 minutes. Plasma was pipetted into Micronic tubes on dry ice, and kept at −20° C. until analysis.
Individual plasma concentration-time profiles were analysed by a non-compartmental model in Phoenix WinNonlin version 6.3 (Pharsight Inc., Mountain View, Calif., USA).
The area under the plasma concentration versus time curve (AUC, [time×concentration]) was calculated (by the Pharsight programme) after subcutaneous administration, typically until 240-288 hours post dosing, or until last measured concentration. The AUC was calculated and given as AUCinf-pred and dose normalized.
Results of co-formulation studies in LYD-pigs are summarized below

[4] = Co-formulation liraglutide + Ex #46

For `CC(C)C[C@H](NC(=O)[C@H](C)NC(=O)[C@H](C)NC(=O)[C@@H](NC(=O)[C@H](CO)NC(=O)[C@H](CC(C)C)NC(=O)[C@H](CCC(=O)O)NC(=O)[C@H](CO)NC(=O)[C@H](C)NC(=O)CC[C@H](NC(=O)CCCCCCCCCCCCCCCCC(=O)O)C(=O)O)[C@@H](C)O)C(=O)NCC(=O)N[C@@H](CCCNC(=N)N)C(=O)N[C@@H](CC(C)C)C(=O)N[C@@H](CO)C(=O)N[C@@H](C)C(=O)N[C@@H](CCC(=O)O)C(=O)N[C@@H](CC(C)C)C(=O)N[C@@H](Cc1cnc[nH]1)C(=O)N[C@@H](CCC(=O)O)C(=O)N[C@@H](CC(C)C)C(=O)N[C@@H](C)C(=O)N[C@H](C(=O)N[C@@H](CC(C)C)C(=O)N1CCC[C@H]1C(=O)N[C@@H](CCCNC(=N)N)C(=O)N[C@H](C(=O)N[C@@H](CCC(=O)O)C(=O)N[C@H](C(=O)NCC(=O)N[C@@H](CO)C(=O)NCC(=O)N[C@@H](CO)C(=O)N1CCC[C@H]1C(N)=O)[C@@H](C)O)[C@@H](C)O)[C@@H](C)O` [Ex. #46, [N-terminal(C18 diacid-gGlu), des1, 30S, 31G]mimylin] ({C18 diacid-γGlu}-ASELSTAALGRLSAELHELATLPRTETGSGSP-NH2), the Solubility ([1]; pH 3.0) was “≧200 μM”, the Solubility ([1]; pH 4.0) was “≧200 μM” and the Solubility ([1]; pH 5.0) was “≧200 μM”. For the same compound, the Solubility ([1]; pH 6.0) was “≧200 μM”, the Solubility ([1]; pH 6.5) was “≧200 μM” and the Solubility ([1]; pH 7.0) was “≧200 μM”. The Solubility ([1]; pH 7.5) was “≧200 μM”, the Solubility ([1]; pH 8.0) was “≧200 μM” and the “PK mini pig iv T½” value [2] was 118 h. The “Cmax/D” value ([3]; Co-dosing liraglutide + Ex #46) was 5.2 kg/L, the “T½ (hous)” value ([3]; Co-dosing liraglutide + Ex #46) was 129 hous and the “Cmax/D” value [3, 4] was 5.7 kg/L. For the same compound, the “T½ (hous)” value [3, 4] was 133 hous and the “effect on PK profile of the co-formulated peptide” value ([3]; administered as co-formulations to LYD pigs) was “do not affect the PK profile of liraglutide”.
